Data from a melting point compilation (Tetko et al.; mined from patent text by program, amines drawn as free bases though some values may be those of a salt).

Row | SMILES | melting point [°C]
1 | C=CCNc1cc(C)nc2cn[nH]c12 | 172 to 174
2 | N#Cc1c(N)nc2ccc(N3CCN(Cc4ccccc4)CC3)cc2c1O | 291
3 | O=C1CCCN1CCCn1cnc2cnc3cc(-c4ccccc4)ccc3c21 | 138 to 141
4 | O=C(O)[C@H](Cc1ccc(C(F)(F)F)cc1)[C@@H](O)c1ccc(Cl)nc1 (racemic) | 145 to 146
5 | COC(=O)c1nc(-c2ccccc2)n2c1CN=C(c1ccccc1F)c1cc(Cl)ccc1-2 | 208 to 209
6 | Cn1c(-c2ccc(-n3ccnc3)cc2)cnc1[C@H](Cc1ccccn1)N(C=O)c1cc2cc(Cl)ccc2o1 | 63 to 73
7 | O=c1oc2cc(O)c(O)cc2c(O)c1-c1coc2c1c(=O)oc1cc(O)c(O)cc12 | > 300
8 | Cc1ccc(-c2cnc(N)c([N+](=O)[O-])c2)cc1 | 183 to 184
9 | CC1=CC(OC(=O)c2ccc([N+](=O)[O-])cc2)C2OC1(OCCO)CC2(C)C (configuration not stated) | 166 to 168
10 | N#CC(=NNc1c(Cl)cc(C(F)(F)F)cc1Cl)c1ccc(Cl)cc1 | 164 to 165
11 | O=C(c1cc2c(OC[C@@H](O)CN3CCC(c4ccc5ccccc5c4)CC3)cccc2[nH]1)N1CCCC1 | 158 to 161
12 | Nc1sc2c(c1C(=O)c1ccc(Br)c3ccccc13)CCC2 | 210 to 212
13 | CCOC(=O)CNC(=O)Oc1c(C)n(C)ccc1=O | 132 to 135
14 | CNC(=S)Nc1ccc(Oc2sc(C(N)=O)c3c2-c2c(cnn2C)CC3)cc1 | 199 to 201
15 | C=CCn1cc(C(=O)O)c(=O)c2cc(F)c(N3CCNCC3)cc21 | 136
16 | CCc1cc(Cc2cnc(N)nc2N)cc(CC)c1O | 200 to 202
17 | C(=C\c1cc(/C=C/c2ccc3cc[nH]c3c2)[nH]n1)/c1ccc(N2CCCCC2)cc1 | 189 to 191
18 | CC(C)(C)c1nc2cc3c(cc2[nH]1)NC(=O)C3(C)C | > 300
19 | CC12CCC(=O)C([N+](=O)[O-])=C1CCC1C2CCC2(C)C(OC3CC3)CCC12 (configuration not stated) | 133 to 134
20 | O=C1CCNc2ccccc2N1c1ccccc1 | 170 to 171
21 | COC(=O)c1nccc2c1[nH]c1ccc(Oc3ccc([N+](=O)[O-])cn3)cc12 | 150 to 155
22 | COc1cc2nc(N3CCN(C(=O)C=Cc4cc(OC)c(OC)c(OC)c4)CC3)nc(N)c2cc1OC | 141 to 146
23 | CC(O)c1cc2c(=O)n(NS(C)(=O)=O)c(=O)[nH]c2cc1C(F)(F)F (configuration not stated) | 263 to 268

Row | SMILES | melting point [°C]
24 | Nc1cnc2ccc(-c3ccccc3)cc2c1Nc1ccccc1Br | 174 to 177
25 | C[C@@H]1CNC[C@H]2Cc3c(ncc(F)c3C=NO)N21 | 195 to 197
26 | CCOC(=O)Nc1c(OC)cc(Cc2cnc(N)nc2N)cc1OC | 192 to 193
27 | CCOC1CC2(C)C(CCC3C4CCC(CC)C4(C)CC(N(C)C)C32)CC1O (configuration not stated) | 57 to 59
28 | O=C(O)Cc1cc([N+](=O)[O-])ccc1Sc1cccc(Br)c1 | 123 to 125
29 | COc1ccc(C2COc3ccc(-c4nnc(C)o4)cc32)cc1 (configuration not stated) | 117 to 118
30 | CC1CCCN1CCCOc1ccc(-c2ccc(S(=O)Cc3ccccc3)nn2)cc1 (configuration not stated) | 145
31 | O=C(O)CCCCCCCCC=Cc1cccs1 | 61 to 62
32 | CCNC(=O)c1ccc(C=O)cc1 | 100
33 | Cc1cccc(CN(Cc2cccc(C)n2)C(c2ccccn2)c2ccccn2)n1 | 168
34 | C=CC1CCC2(C)C(CCC3C4CCC(=O)C4(C)CCC32)C1 (configuration not stated) | 100 to 102
35 | N#Cc1ccc(C(N)=O)s1 | 222 to 223
36 | CC1=CC(=O)C=C2CCC3C4CCC(=O)C4(C)CCC3C12C (configuration not stated) | 165 to 167
37 | COc1ccccc1OCCCOS(N)(=O)=O | 80 to 83
38 | CC1(OC(=O)c2ncn3c2C2CCCN2C(=O)c2c(Cl)cccc2-3)CCCC1 (configuration not stated) | 190 to 191
39 | CC(=O)c1cn(Cc2ccccc2)c(=O)n(Cc2ccccc2)c1=O | 92 to 93
40 | C#CCN(Cc1cc2c(=O)n(C)c(CN3CCN(c4ccccc4)CC3)nc2cc1Cl)c1ccc(C(=O)OC(C)(C)C)cc1 | > 95
41 | CCOC(=O)c1c(N(C(C)=O)C(C)=O)c2cccnc2n(CC)c1=O | 133 to 135
42 | CCS(=O)(=O)N=CNCc1nc(-c2csc(N=C(N)N)n2)cs1 | 216 to 217
43 | CC(C)(C)OC(=O)N1CCC(Cc2c[nH]c3ccc(F)cc23)CC1 | 144 to 145
44 | CCOc1c(C(=O)O)oc2c3ccccc3n(-c3ccccc3)c12 | 146 to 147
45 | COc1ccc2cc(C(=O)O)ccc2n1 | 220 to 222
46 | Cc1nc(C2(C)CC2(Cl)Cl)nn1-c1c(Cl)cc(C(F)(F)F)cc1Cl (configuration not stated) | 107 to 116

The next lines start with the values.

Row | melting point [°C] | SMILES
47 | 155 to 156 | CC1=C(C)CC(C(=O)Nc2ccccc2)C(C(=O)O)C1 (configuration not stated)
48 | > 300 | Cc1cc(N)n(C)c2nc(N)nc(=O)c1-2
49 | 111 to 113 | Cc1nc(NC(=O)c2cccc(S(C)(=O)=O)c2)sc1C(=O)NCc1ccccc1
50 | 158 | CCCCNc1ccc(C(=O)O)cc1N
51 | 71 to 72 | CCCC(=O)NC1C=CC(CO)C1 (configuration not stated)
52 | 126 to 128 | N#Cc1ccc(C=CC(=O)c2ccccc2N)cc1
53 | 191 to 192 | Cc1cc(OCc2cnc(-c3ccc(C(F)(F)F)cc3)nc2C2CC2)ccc1OC(C)(C)C(=O)O
54 | 165 to 170 | CC1c2onc(-c3ccc(Cl)cc3)c2CCC1(C)C(=O)O (configuration not stated)
55 | 112 to 113 | Cn1c(=O)c2c(ncn2CCCOS(C)(=O)=O)n(C)c1=O
56 | 106 to 108 | CCNC(=O)n1nc(Oc2c(Cl)cc(C(F)(F)F)cc2Cl)cc1COC
57 | 72 | C[C@]12Cc3ccccc3[C@H]1Nc1ccccc12 (relative stereo)
58 | 93 to 94 | COC(=O)c1nc(-c2ccc(Cl)cc2)c(F)c(N)c1OC
59 | 134 to 136 | OC(Cc1cc(-c2ccccc2)on1)N1CCOCC1 (configuration not stated)
60 | 256 to 260 | CC(C)n1cc(C(=O)O)c(=O)c2cc(F)c(F)c(F)c21
61 | 83 to 84 | CN(Cc1ncc(C(F)(F)F)cc1Cl)C(=O)c1c(Cl)cccc1Cl
62 | 62 to 63 | CCCCCCCCCCCCOC(=O)NS(=O)(=O)Cl
63 | 96 | O=[N+]([O-])c1sc(Oc2ccccc2)nc1Cl
64 | 215 to 217 | O=c1c2ccccc2nc(-c2cc(-c3ccc(Cl)cc3)c(N3CCOCC3)s2)n1-c1ccccc1Cl
65 | 134 to 135 | O=C1CC2CSc3sccc3C2=NN1c1ccc(Cl)cc1 (configuration not stated)

Row | melting point [°C] | SMILES
66 | 68 to 72 | C[Si](C)(C)c1cc(Cl)sc1C(=O)NCCCl
67 | 283 to 287 | COc1ccc(Nc2nc3cc4c(cc3[nH]2)C(C)(C)CC(=O)N4)cc1
68 | 122 to 124 | Cc1onc(-c2ccccc2)c1C(=O)NCCCCl
69 | 161 to 162 | N#CC(C#N)=CN(N=C(C#N)C#N)c1ccc(Cl)cc1
70 | 120 to 123 | CC(C)(C)c1cc(CCc2n[nH]c(=O)o2)cc(C(C)(C)C)c1O
71 | 180 to 181 | O=C(O)C1=Cc2ccc(Oc3ccccc3)cc2OC1C(F)(F)F (configuration not stated)
72 | 62 to 63.5 | CCCCCCCCCCCCCCCCC[C@H](C[C@H](O)[C@H](CC)C(=O)O)OCc1ccccc1
73 | 260 to 261 | N#Cc1cccc(-n2cc(-c3ccccn3)cn2)n1
74 | 150 to 152 | Cc1ccc2c3c(c(=O)oc2c1)CN(CCN1CC2CCCC(C2)C1)CC3
75 | > 330 | NS(=O)(=O)c1cc2[nH]c(=O)c(=O)[nH]c2cc1[N+](=O)[O-]
76 | 105 to 107 | Nc1ncccc1OCc1ccc(F)cc1F
77 | 135 | CC(C#N)(c1ccc(Cl)cc1)c1ccc(N)cc1Cl (configuration not stated)
78 | 118 to 119 | CCCCNc1cccnc1S(=O)(=O)NC(=O)Nc1nc(OC)cc(OC)n1
79 | 119 to 120 | COc1ccc(-c2nc(SCC(F)(F)F)[nH]c2-c2ccc(OC)cc2)cc1
80 | 113 to 115 | CC1=C(C(=O)OCCN(C)Cc2ccccc2)C(c2cccc([N+](=O)[O-])c2)C(P(=O)(OC(C)C)OC(C)C)=C(C)N1 (configuration not stated)
81 | 235 to 245 | Cc1cc(NC(=O)c2cnn(-c3ccc(Cl)cc3)c2C)ccc1N1CCC(N2CCOCC2)CC1
82 | 124 to 127 | CCOC(=O)c1ccc2c(CC[N+](=O)[O-])c[nH]c2c1
83 | 233 to 234 | O=c1c2c(nc3ccc(Br)cn13)C(=Cc1ccc(Cl)cc1)CC2
84 | 129 to 130 | CC(=O)c1ccc(OCCCCNS(=O)(=O)c2ccc(Br)cc2)cc1

Row | melting point [°C] | SMILES
85 | 173 to 174 | c1ccc2c(c1)nc(-c1ccc3c(c1)OCO3)n2Cc1ccc2c(c1)OCO2
86 | 168 to 169 | COc1ccc(CN2C(=O)CCc3cc(O)c(OC)cc32)cc1
87 | 77 to 82 | CC(C)(C)OC(=O)NNCc1ccc(Cl)cc1
88 | 127 to 129 | COC(=O)c1sc(-c2ccc(C)cc2)cc1NC(C)=O
89 | 125 | O=C(O)CSCCSc1cc(-c2ccccc2)c(O)c(-c2ccccc2)c1
90 | 181 to 185 | C[C@@H](NS(=O)(=O)c1ccc(-c2c(C#N)c3cc(Cl)ncc3n2C2CCC2)nc1)C(F)(F)F
91 | 191 to 192 | O=C(C#Cc1ccc(CN2CCC(N3CCCC3)CC2)cc1)Nc1ccc(-c2ccc(Cl)cc2)cc1
92 | 44 to 46 | COC(=O)c1cc(CN=[N+]=[N-])cc([N+](=O)[O-])c1
93 | 197 to 198 | COc1ccc2oc(Cn3cnc4c(N)ncnc43)c(-c3ccccc3)c(=O)c2c1
94 | 88 to 92 | CCCCNS(=O)(=O)CC(O)C(O)C(CC1CCCCC1)NC(=O)CCC(C)C (configuration not stated)
95 | 103 to 104 | COC(=O)c1c(Br)ccc2nn(C)cc12
96 | 150 to 152 | CCCNC(=O)C(C)=Cc1ccc2ccn(Cc3ccc(C(=O)O)cc3OC)c2c1
97 | 210 to 211 | COc1ccc(Nc2ccc(Nc3ncnc4cc(-c5ccccc5)sc34)cc2)cc1
98 | 122 to 125 | CNC(=O)c1cc(N2CCN(C)CC2)ncc1Br
99 | 263 to 265 | NC(=O)c1cc(=O)c2c(o1)c1ccccc1n2-c1ccccc1
100 | 92 to 94 | Fc1ccc(CNc2ccc(-n3nc(C(F)(F)F)cc3C(F)(F)F)cc2)cc1
101 | 220 to 221 | CCn1nc(-c2ccccc2)c(C(C)=O)c(Nc2cccc3ncccc23)c1=O
102 | 81 to 82 | CCOC(=O)CCc1cn(CCc2ccc(OCc3nc(-c4ccccc4)oc3C)cc2)nc1-c1ccccc1
